This passage reports IC50 results from patent publication US20190194179A1, “ANTIBIOTIC COMPOUNDS” (DISCUVA LTD., priority 2016, published 2019).

SMILES strings stand for the structures. Counter-ions that a name gives are not always drawn.

The subject of the experiment is Neisseria gonorrhoeae. Description: EC50 determination: plate-based broth growth assay (absorbance at 600 nm) of Neisseria gonorrhoeae. The class given is cell-based. As to conditions: absorbance 600 nm after 20 hours at 37° C./5% CO2, read-out: IC50 (Inhibitory concentration) against Neisseria gonorrhoeae. On the procedure: Actively growing Neisseria gonorrhoeae on GC agar (based on; Spence et. al. (2008): Curr. Protoc. Microbiol. 8:4A.1.1-4A.1.26) plates are harvested and transferred to GC broth (based on; Spence et al (2008): Curr. Protoc. Microbiol. 8:4A.1.1-4A.1.26) to generate a liquid stock. This culture is allowed to establish and grow to mid-log phase (at 37° C./5% CO2), finally this culture is diluted (˜10^5 cells/ml) to generate a seed inoculum to establish plate-based broth assays. EC50 values were determined by assaying growth (absorbance read at 600 nm, after 20 hours at 37° C./5% CO2) of Neisseria gonorrhoeae across a 10-point dilution series of the test compound. The EC50 value is determined from transformed data to identify the concentration of compound giving a 50% response relative to control samples (no compound).

`O=C(NC1CC1)c1csc(Nc2nc3ccccc3o2)n1` [Example 15, 2-(Benzo[d]oxazol-2-ylamino)-N-cyclopropylthiazole-4-carboxamide]: the IC50 is at most 1 µM.
With `Clc1ccc2oc(Nc3nc4ccccc4o3)nc2c1` [Example 162, N-(Benzo[d]oxazol-2-yl)-5-chlorobenzo[d] oxazol-2-amine], the IC50 was at most 0.1 µM.
On to `C#Cc1nnc(Nc2nc3ccc(Cl)cc3o2)o1` [Example 194, 6-Chloro-N-(5-ethynyl-1,3,4-oxadiazol-2-yl)benzo[d]oxazol-2-amine], for which the IC50 was at most 0.1 µM.
As to `Cc1nnc(Nc2nc3cc(C(F)(F)F)c(Cl)cc3n2C)[nH]1` [Example 144, 6-Chloro-1-methyl-N-(5-methyl-4H-1,2,4-triazol-3-yl)-5-(trifluoromethyl)-1H-benzo[d]imidazol-2-amine], the IC50 is at most 100 µM.
Turning to `CCOC(=O)c1nnc(Nc2nc3cc(C(F)(F)F)ccc3[nH]2)o1` [Example 56, Ethyl 5-((5-(trifluoromethyl)-1H-benzo[d]imidazol-2-yl)amino)-1,3,4-oxadiazole-2-carboxylate], the IC50 was at most 1 µM.
`CCNC(=O)c1csc(Nc2nc3cc(C(F)(F)F)ccc3o2)n1` [Example 3, N-Ethyl-2-((5-(trifluoromethyl)benzo[d]oxazol-2-yl)amino)thiazole-4-carboxamide]: the IC50 was at most 1 µM.
In the case of `Clc1ccc2nc(Nc3cocn3)oc2c1` [Example 221, 6-Chloro-N-(oxazol-4-yl)benzo[d]oxazol-2-amine], the IC50 is at most 1 µM.
Consider `c1nnc(Nc2nc3ccc(C4CC4)cc3o2)o1` [Example 180, 6-Cyclopropyl-N-(1,3,4-oxadiazol-2-yl)benzo[d]ox-azol-2-amine], for which the IC50 is at most 1 µM.
In the case of `Clc1cc(Cl)c2nc(Nc3nnco3)oc2c1` [Example 45, 4,6-Dichloro-N-(1,3,4-oxadiazol-2-yl)benzo[d]oxazol-2-amine], the IC50 was at most 0.1 µM.
With `O=C(NC1CC1)c1csc(Nc2nc3cc(F)ccc3o2)n1` [Example 18, N-Cyclopropyl-2-((5-fluorobenzo[d]oxazol-2-yl)amino)thiazole-4-carboxamide] the figure was at most 1 µM; with `Cc1cc2oc(Nc3nnco3)nc2cc1Cl` [Example 187, 5-Chloro-6-methyl-N-(1,3,4-oxadiazol-2-yl)benzo[d]ox-azol-2-amine], at most 0.1 µM; with `Clc1ccc2nc(Nc3cnoc3)oc2c1` [Example 225, 6-Chloro-N-(isoxazol-4-yl)benzo[d]oxazol-2-amine], at most 100 µM.
For the molecule `Cc1cc(Cl)cc2oc(Nc3nnco3)nc12` [Example 189, 6-Chloro-4-methyl-N-(1,3,4-oxadiazol-2-yl)benzo[d]ox-azol-2-amine], the IC50 is at most 0.1 µM.
Consider `O=C(NC1CC1)c1csc(Nc2nc3cc(C(F)(F)F)ccc3o2)n1` [Example 1, N-Cyclopropyl-2-((5-(trifluoromethyl)benzo[d]oxazol-2-yl)amino)thiazole-4-carboxamide], for which the IC50 is at most 1 µM.
As for `O=C(NC1CC1)c1csc(Nc2nc3ccc(F)cc3o2)n1` [Example 19, N-Cyclopropyl-2-((6-fluorobenzo[d]oxazol-2-yl)amino)thiazole-4-carboxamide], the IC50 is at most 1 µM.
With `Cc1nnc(Nc2nc3c(Cl)cccc3o2)o1` [Example 119, 4-Chloro-N-(5-methyl-1,3,4-oxadiazol-2-yl)benzo[d]oxazol-2-amine] the figure was at most 1 µM.
As for `FC(F)(F)c1ccc2oc(Nc3nnc(C4CCNCC4)o3)nc2c1` [Example 145, N-(5-(Piperidin-4-yl)-1,3,4-oxadiazol-2-yl)-5-(trifluoromethyl)benzo[d]oxazol-2-amine hydrochloride], the IC50 was at most 100 µM.
For the molecule `CN1CCc2oc(Nc3nc4cc(C(F)(F)F)ccc4o3)nc2C1` [Example 156, 5-Methyl-N-(5-(trifluoromethyl)benzo[d]oxazol-2-yl)-4,5,6,7-tetrahydrooxazolo[4,5-c]pyridin-2-amine], the IC50 was at most 1 µM.
Turning to `CN(C)Cc1nnc(Nc2nc3cc(C(F)(F)F)ccc3o2)[nH]1` [Example 136, N-(5-((Dimethylamino)methyl)-4H-1,2,4-triazol-3-yl)-5-(trifluoromethyl)benzo[d]oxazol-2-amine], the IC50 was at most 1 µM.
Take `O=C(c1nnc(Nc2nc3c(Cl)cccc3o2)o1)N1CCCC1` [Example 134, (5-((4-Chlorobenzo[d]oxazol-2-yl)amino)-1,3,4-oxadiazol-2-yl)(pyrrolidin-1-yl)methanone]: the IC50 is at most 10 µM.
In the case of `FC(F)(F)c1ccc2[nH]c(Nc3nnco3)nc2c1` [Example 68, N-(5-(Trifluoromethyl)-1H-benzo[d]imidazol-2-yl)-1,3,4-oxadiazol-2-amine], the IC50 is at most 1 µM.
For `CC(=O)N(C)c1ccc2nc(Nc3nnco3)oc2c1` [Example 215, N-(2-((1,3,4-Oxadiazol-2-yl)amino)benz-o[d]oxazol-6-yl)-N-methylacetamide], the IC50 is at most 100 µM.
With `FC(F)(F)c1ccc2oc(Nc3nnc(C4CC4)o3)nc2c1` [Example 103, N-(5-Cyclopropyl-1,3,4-oxadiazol-2-yl)-5-(trifluoromethyl)benzo[d]oxazol-2-amine] the figure was at most 0.1 µM; with `CC(C)c1nnc(Nc2nc3cc(C(F)(F)F)c(Cl)cc3o2)[nH]1` [Example 139, 6-Chloro-N-(5-isopropyl-4H-1,2,4-triazol-3-yl)-5-(trifluoromethyl)benzo[d]oxazol-2-amine], at most 1 µM; with `FC1(F)CCN(Cc2nnc(Nc3nc4cc(C(F)(F)F)ccc4o3)o2)C1` [Example 74, N-(5-((3,3-diFluoropyrrolidin-1-yl)methyl)-1,3,4-oxadiazol-2-yl)-5-(trifluoromethyl)benzo[d]oxazol-2-amine], at most 1 µM.
Consider `CN(C)Cc1nnc(Nc2nc3ccc(Cl)cc3o2)o1` [Example 81, 6-Chloro-N-(5-((dimethylamino)methyl)-1,3,4-oxadiazol-2-yl)benzo[d]oxazol-2-amine], for which the IC50 is at most 1 µM.
As to `Cc1nnc(Nc2nc3ccc(Cl)cc3o2)o1` [Example 109, 6-Chloro-N-(5-methyl-1,3,4-oxadiazol-2-yl)benzo[d]oxazol-2-amine], the IC50 is at most 0.1 µM.
For `COCCOc1ccc2nc(Nc3nnco3)oc2c1` [Example 193, 6-(2-methoxyethoxy)-N-(1,3,4-oxadiazol-2-yl)benzo[d]oxazol-2-amine], the IC50 is at most 1 µM.
Regarding `Clc1cccc2nc(Nc3nnc(CN4CCCC4)[nH]3)oc12` [Example 131, 7-Chloro-N-(5-(pyrrolidin-1-ylmethyl)-4H-1,2,4-triazol-3-yl)benzo[d]oxazol-2-amine], the IC50 is at most 1 µM.
Consider `Cc1nnc(Nc2nc3c(C)cccc3n2C)o1` [Example 90, N-(1,4-Dimethyl-1H-benzo[d]imidazol-2-yl)-5-methyl-1,3,4-oxadiazol-2-amine], for which the IC50 was at most 10 µM.
The result for `Cc1cc(Nc2nc3ccc(Cl)cc3o2)no1` [Example 172, 6-Chloro-N-(5-methylisoxazol-3-yl)benzo[d]oxazol-2-amine] reads at most 1 µM; that for `Oc1ccc2nc(Nc3nnco3)oc2c1` [Example 177, 2-((1,3,4-Oxadiazol-2-yl)amino)ben-zo[d]oxazol-6-ol], at most 10 µM; that for `COC(=O)c1ccc2nc(Nc3nnco3)oc2c1` [Example 178, Methyl 2-((1,3,4-oxadiazol-2-yl)amino)ben-zo[d]oxazole-6-carboxylate], at most 1 µM.
Regarding `Fc1cc(Cl)cc2oc(Nc3nnco3)nc12` [Example 176, 6-Chloro-4-fluoro-N-(1,3,4-oxadiazol-2-yl)benzo[d]ox-azol-2-amine], the IC50 is at most 1 µM.
Consider `Clc1ccc2nc(Nc3nnc(C4CCOC4)o3)oc2c1` (stereo not drawn) [Example 199, 6-Chloro-N-(5-(tetrahydrofuran-3-yl)-1,3,4-oxadiazol-2-yl)benzo[d]oxa-zol-2-amine], for which the IC50 was at most 1 µM.
Take `Cc1nnc(Nc2nc3ccc(C(F)(F)F)cc3o2)o1` [Example 104, N-(5-Methyl-1,3,4-oxadiazol-2-yl)-6-(trifluoromethyl)benzo[d]oxazol-2-amine]: the IC50 is at most 0.1 µM.
With `FC(F)(F)c1ccc2oc(Nc3nc4ccccc4[nH]3)nc2c1` [Example 167, N-(1H-Benzo[d]imidazol-2-yl)-5-(trifluoromethyl) benzo[d]oxazol-2-amine], the IC50 was at most 1 µM.
As to `Cc1csc(Nc2nc3cc(C(F)(F)F)ccc3o2)n1` [Example 7, N-(4-Methylthiazol-2-yl)-5-(trifluoromethyl)benzo[d]oxazol-2-amine], the IC50 was at most 1 µM.
On to `CC(=O)N(C)Cc1nnc(Nc2nc3cc(C(F)(F)F)ccc3o2)o1` [Example 94, N-Methyl-N-((5-((5-(trifluoromethyl)benzo[d]oxazol-2-yl)amino)-1,3,4-oxadiazol-2-yl)methyl)acetamide], for which the IC50 is at most 10 µM.
Turning to `O=C(Nc1ccnc(F)c1)c1csc(Nc2nc3cc(C(F)(F)F)ccc3o2)n1` [Example 98, N-(2-fluoropyridin-4-yl)-2-((5-(trifluoromethyl)benzo[d]oxazol-2-yl)amino)thiazole-4-carboxamide], the IC50 is at most 0.1 µM.
For the molecule `FC(F)(F)c1cc2nc(Nc3nnco3)oc2cc1Cl` [Example 138, 6-Chloro-N-(1,3,4-oxadiazol-2-yl)-5-(trifluoromethyl)benzo[d]oxazol-2-amine], the IC50 is at most 0.1 µM.
Regarding `CN(c1nc2ccccc2o1)c1nc2cnc(C(F)(F)F)cc2o1` [Example 169, N-(benzo[d]oxazol-2-yl)-N-methyl-6-(trifluoromethyl)oxazolo[4,5-c]pyridin-2-amine], the IC50 was at most 100 µM.
